From US8080570B2, “α2B and α2C agonists” (Allergan, Inc., priority 2008, dated 2011)

What was measured:
Assay type in all cases: cell-based
α2A = biological target: T1, α2A (Homo sapiens, UniProt P08913); test: FLIPR intracellular calcium assay, α2A; conditions: for EC50: FLIPR, fluo-3 calcium, NA = not active, read-out: α2A potency (EC50); for α2A relative efficacy: value in parentheses, relative to a standard full agonist
T1 sequence (P08913 1-465): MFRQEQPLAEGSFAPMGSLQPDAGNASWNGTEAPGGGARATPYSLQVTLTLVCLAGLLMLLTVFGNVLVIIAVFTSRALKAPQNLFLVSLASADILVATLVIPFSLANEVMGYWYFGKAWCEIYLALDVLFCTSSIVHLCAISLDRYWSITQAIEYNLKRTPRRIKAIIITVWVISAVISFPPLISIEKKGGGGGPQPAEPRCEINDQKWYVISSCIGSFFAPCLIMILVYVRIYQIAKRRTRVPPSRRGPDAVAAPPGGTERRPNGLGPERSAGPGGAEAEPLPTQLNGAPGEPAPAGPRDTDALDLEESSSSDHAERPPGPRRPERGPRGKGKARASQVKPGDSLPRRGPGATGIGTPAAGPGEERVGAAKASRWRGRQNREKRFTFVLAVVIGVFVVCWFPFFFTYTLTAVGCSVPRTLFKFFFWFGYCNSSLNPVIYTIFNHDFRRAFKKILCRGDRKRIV

α2B = biological target: T2, α2B (Homo sapiens, UniProt P18089); test: FLIPR intracellular calcium assay, α2B; conditions: for EC50: FLIPR, fluo-3 calcium, NA = not active, read-out: α2B potency (EC50); for α2B relative efficacy: value in parentheses, relative to a standard full agonist
T2 sequence (P18089 1-450): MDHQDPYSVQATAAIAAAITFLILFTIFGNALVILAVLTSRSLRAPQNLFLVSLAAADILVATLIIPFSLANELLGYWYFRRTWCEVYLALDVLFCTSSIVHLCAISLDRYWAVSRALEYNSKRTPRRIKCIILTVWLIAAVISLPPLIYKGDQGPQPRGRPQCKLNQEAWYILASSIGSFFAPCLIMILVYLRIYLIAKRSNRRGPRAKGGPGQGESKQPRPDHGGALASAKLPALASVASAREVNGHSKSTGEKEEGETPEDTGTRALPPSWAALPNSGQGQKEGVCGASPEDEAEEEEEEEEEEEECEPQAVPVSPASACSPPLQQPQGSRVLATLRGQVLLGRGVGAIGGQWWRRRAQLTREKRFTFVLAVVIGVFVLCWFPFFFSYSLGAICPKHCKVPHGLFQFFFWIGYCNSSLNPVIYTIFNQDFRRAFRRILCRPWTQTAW

α2C = biological target: T3, α2C (Homo sapiens, UniProt P18825); test: FLIPR intracellular calcium assay, α2C; conditions: for EC50: read-out: α2C potency (EC50); for α2C relative efficacy: value in parentheses, relative to a standard full agonist
T3 sequence (P18825 1-462): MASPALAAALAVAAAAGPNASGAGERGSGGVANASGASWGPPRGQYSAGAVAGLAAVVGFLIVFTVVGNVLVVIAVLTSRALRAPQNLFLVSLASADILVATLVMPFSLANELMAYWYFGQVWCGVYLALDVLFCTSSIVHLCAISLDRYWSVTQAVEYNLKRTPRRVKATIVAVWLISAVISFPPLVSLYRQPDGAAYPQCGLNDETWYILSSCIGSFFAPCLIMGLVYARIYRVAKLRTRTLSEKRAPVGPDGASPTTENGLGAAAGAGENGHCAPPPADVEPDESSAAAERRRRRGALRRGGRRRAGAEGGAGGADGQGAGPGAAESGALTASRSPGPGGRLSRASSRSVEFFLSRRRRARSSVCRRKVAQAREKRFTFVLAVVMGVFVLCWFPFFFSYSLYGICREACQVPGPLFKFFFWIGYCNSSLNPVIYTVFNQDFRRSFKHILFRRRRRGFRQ

α1A = biological target: T4, α1A (UniProt P35348); test: FLIPR intracellular calcium assay, α1A; conditions: for EC50: FLIPR, fluo-3 calcium, NA = not active, read-out: α1A potency (EC50); for α1A relative efficacy: value in parentheses, relative to a standard full agonist
T4 sequence (P35348 1-466): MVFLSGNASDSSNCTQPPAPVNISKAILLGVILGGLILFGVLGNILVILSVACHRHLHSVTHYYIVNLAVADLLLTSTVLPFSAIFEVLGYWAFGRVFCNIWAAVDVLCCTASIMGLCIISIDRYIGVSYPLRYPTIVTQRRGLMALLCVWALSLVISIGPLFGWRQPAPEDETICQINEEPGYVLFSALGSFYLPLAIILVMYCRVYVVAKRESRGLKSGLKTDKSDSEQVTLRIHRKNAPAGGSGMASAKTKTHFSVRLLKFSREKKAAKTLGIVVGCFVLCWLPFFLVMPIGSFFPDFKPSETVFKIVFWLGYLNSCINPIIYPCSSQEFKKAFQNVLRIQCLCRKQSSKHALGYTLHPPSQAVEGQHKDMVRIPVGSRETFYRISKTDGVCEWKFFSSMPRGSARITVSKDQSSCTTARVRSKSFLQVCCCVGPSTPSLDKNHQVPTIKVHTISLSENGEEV
Experimental: (§1) Selected examples were tested via the intracellular calcium assay known as Fluorometric Imaging Plate Reader (FLIPR) which involves the detection of calcium pulses by fluo-3 for analyzing function proximal to α1 receptor activation. […] The compound's activity is expressed as its relative efficacy compared to a standard full agonist.

α1B = biological target: T5, α1B (UniProt P35368); test: FLIPR intracellular calcium assay, α1B; conditions: for EC50: FLIPR, fluo-3 calcium, NA = not active, read-out: α1B potency (EC50); for α1B relative efficacy: value in parentheses, relative to a standard full agonist
T5 sequence (P35368 1-520): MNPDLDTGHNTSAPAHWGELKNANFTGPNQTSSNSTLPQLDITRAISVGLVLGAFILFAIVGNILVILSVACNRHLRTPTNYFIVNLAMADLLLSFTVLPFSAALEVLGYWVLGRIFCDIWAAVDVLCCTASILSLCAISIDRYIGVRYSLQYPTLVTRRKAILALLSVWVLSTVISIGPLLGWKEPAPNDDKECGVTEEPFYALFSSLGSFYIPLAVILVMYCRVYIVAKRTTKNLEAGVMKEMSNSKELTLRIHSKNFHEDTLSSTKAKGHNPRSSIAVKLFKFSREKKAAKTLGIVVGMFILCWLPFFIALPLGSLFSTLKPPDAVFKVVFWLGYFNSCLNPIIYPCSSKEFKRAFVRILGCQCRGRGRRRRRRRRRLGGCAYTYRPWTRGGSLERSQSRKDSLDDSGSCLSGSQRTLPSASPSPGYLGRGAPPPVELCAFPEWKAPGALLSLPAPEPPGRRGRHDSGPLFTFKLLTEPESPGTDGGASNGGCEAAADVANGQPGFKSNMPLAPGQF
Experimental: as §1

[1] = FLIPR, fluo-3 calcium, NA = not active

Row | EC50 (α2A) | α2A relative efficacy (α2A) | EC50 (α2B) | α2B relative efficacy (α2B) | EC50 (α2C; [1]) | α2C relative efficacy (α2C) | EC50 (α1A) | EC50 (α1B) | α1A relative efficacy (α1A) | α2C potency (EC50) (α2C; [1]) | α1B relative efficacy (α1B) | Structure (SMILES)
1 | 4050 nM | 0.20 | 413 nM | 0.77 | 34.6 nM | 0.89 | > 10000 nM | > 10000 nM | – | – | – | C#CC(C)NC1=NCCO1 (stereo not drawn)
2 | 54.7 nM | 0.74 | 91.5 nM | 0.82 | 0.004 nM | 0.87 | 6540 nM | – | 0.78 | – | – | C#CC(CC)NC1=NCCO1 (stereo not drawn)
3 | 664 nM | 0.44 | 386 nM | 0.68 | 65 nM | 0.99 | 3030 nM | > 10000 nM | 0.72 | – | – | C#CC(CCC)NC1=NCCO1 (stereo not drawn)
4 | > 10000 nM | – | 331 nM | 0.48 | 18.3 nM | 0.98 | 7370 nM | > 10000 nM | 0.59 | – | – | C#CC(CC(C)C)NC1=NCCO1 (stereo not drawn)
5 | 16.9 nM | 0.85 | 64 nM | 0.88 | – | 1.02 | 1200 nM | 5940 nM | 0.93 | Potent | 0.28 | C#C[C@H](NC1=NCCO1)C(C)C
6 | 298 nM | 0.41 | 354 nM | 0.71 | 127 nM | 0.89 | – | > 10000 nM | – | – | – | C#CC(NC1=NCCO1)C1CC1 (stereo not drawn)
7 | > 10000 nM | – | 361 nM | 0.36 | 295 nM | 0.81 | 1650 nM | > 10000 nM | 0.34 | – | – | C#CC(NC1=NCCO1)c1ccccc1Br (stereo not drawn)
8 | 588 nM | 0.42 | 215 nM | 0.56 | 158 nM | 0.76 | 1140 nM | – | 0.99 | – | – | N#CC(NC1=NCCO1)c1ccccc1 (stereo not drawn)
9 | 30 nM | 0.79 | 25.9 nM | 0.50 | 6.01 nM | 0.88 | 40.8 nM | 3510 nM | 0.96 | – | 0.54 | C#CC(NC1=NCCO1)c1cccc(F)c1F (stereo not drawn)
10 | 80.5 nM | 0.88 | 218 nM | 0.56 | 382 nM | 0.78 | 410 nM | 5360 nM | 0.81 | – | 0.24 | C#CC(NC1=NCCO1)c1cccc(Cl)c1 (stereo not drawn)

Row | Structure (SMILES) | EC50 (α2A) | α2A relative efficacy (α2A) | EC50 (α2B) | α2B relative efficacy (α2B) | EC50 (α2C; [1]) | α2C relative efficacy (α2C) | EC50 (α1A) | EC50 (α1B) | α1A relative efficacy (α1A) | α2C potency (EC50) (α2C; [1]) | α1B relative efficacy (α1B)
11 | C#CC(NC1=NCCO1)c1ccccc1 (stereo not drawn) | – | 0.04 (0.82) | – | 1.12 (0.61) | – | Potent (0.82) | – | – | 0.58 (0.92) | – | –
